Key:
Thromboxane A2 receptor = molecular target: T1, Thromboxane A2 receptor (Homo sapiens, UniProt P21731)
T1 sequence (P21731 whole entry): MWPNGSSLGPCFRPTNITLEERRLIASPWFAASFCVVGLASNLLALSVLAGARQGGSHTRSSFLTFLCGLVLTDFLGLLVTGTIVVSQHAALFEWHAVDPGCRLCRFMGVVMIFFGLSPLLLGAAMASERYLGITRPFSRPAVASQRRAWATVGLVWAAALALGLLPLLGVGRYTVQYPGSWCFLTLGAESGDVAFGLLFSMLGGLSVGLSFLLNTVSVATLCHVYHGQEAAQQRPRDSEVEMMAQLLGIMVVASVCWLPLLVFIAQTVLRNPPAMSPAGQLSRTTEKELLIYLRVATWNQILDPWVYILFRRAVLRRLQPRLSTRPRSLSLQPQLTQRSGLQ

[1] = molecular target: T2, Prostaglandin G/H synthase 1 (Rattus norvegicus, UniProt Q63921); type: functional
T2 sequence (Q63921 whole entry): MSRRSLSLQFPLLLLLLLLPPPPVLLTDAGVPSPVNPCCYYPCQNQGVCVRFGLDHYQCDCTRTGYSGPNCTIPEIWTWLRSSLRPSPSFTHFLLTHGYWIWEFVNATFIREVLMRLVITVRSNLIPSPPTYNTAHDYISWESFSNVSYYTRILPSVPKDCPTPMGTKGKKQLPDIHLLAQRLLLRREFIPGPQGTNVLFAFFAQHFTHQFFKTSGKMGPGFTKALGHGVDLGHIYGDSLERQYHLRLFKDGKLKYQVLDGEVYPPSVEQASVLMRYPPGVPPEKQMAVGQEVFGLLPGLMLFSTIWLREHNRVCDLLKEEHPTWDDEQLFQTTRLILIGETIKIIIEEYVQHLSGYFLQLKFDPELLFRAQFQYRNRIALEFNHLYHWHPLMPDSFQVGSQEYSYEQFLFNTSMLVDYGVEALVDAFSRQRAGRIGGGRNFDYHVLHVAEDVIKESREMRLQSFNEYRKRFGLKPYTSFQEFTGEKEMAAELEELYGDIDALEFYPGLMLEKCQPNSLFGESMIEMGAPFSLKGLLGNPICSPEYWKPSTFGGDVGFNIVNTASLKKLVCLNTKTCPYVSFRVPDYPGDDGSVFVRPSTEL

Cannabinoid receptor 1 = Cannabinoid receptor 1 (Homo sapiens, UniProt P21554); type: functional, cell-based
[2] = molecular target: T3, Amine oxidase [flavin-containing] A (Homo sapiens, UniProt P21397); type: functional
T3 sequence (P21397 whole entry): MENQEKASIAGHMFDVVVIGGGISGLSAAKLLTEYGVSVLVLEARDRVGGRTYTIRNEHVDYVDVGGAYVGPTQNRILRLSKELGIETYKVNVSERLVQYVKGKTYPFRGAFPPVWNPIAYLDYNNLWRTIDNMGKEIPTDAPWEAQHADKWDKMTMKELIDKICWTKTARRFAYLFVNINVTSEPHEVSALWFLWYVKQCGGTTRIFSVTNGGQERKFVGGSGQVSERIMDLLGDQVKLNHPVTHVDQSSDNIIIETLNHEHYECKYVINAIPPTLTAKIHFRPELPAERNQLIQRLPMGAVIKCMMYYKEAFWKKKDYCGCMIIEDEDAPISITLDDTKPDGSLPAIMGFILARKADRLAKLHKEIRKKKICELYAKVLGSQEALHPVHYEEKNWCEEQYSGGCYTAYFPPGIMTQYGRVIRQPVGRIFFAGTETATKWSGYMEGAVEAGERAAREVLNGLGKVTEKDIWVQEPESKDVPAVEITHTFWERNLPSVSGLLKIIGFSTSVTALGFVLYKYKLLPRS

[3] = molecular target: T4, Cholecystokinin receptor type A (Homo sapiens, UniProt P32238)
T4 sequence (P32238 whole entry): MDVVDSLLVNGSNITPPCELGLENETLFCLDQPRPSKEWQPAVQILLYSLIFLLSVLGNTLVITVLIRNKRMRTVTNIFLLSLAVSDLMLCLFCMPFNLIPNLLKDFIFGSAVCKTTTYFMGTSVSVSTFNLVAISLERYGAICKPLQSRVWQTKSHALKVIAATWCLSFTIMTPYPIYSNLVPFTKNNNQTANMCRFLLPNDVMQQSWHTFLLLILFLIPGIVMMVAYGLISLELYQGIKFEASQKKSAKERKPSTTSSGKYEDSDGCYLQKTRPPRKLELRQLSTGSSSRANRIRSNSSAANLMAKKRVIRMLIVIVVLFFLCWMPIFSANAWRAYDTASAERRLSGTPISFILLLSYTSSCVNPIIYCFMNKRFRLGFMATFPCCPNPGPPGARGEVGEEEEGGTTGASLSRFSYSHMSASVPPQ

B2 bradykinin receptor = molecular target: T5, B2 bradykinin receptor (Homo sapiens, UniProt P30411)
T5 sequence (P30411 whole entry): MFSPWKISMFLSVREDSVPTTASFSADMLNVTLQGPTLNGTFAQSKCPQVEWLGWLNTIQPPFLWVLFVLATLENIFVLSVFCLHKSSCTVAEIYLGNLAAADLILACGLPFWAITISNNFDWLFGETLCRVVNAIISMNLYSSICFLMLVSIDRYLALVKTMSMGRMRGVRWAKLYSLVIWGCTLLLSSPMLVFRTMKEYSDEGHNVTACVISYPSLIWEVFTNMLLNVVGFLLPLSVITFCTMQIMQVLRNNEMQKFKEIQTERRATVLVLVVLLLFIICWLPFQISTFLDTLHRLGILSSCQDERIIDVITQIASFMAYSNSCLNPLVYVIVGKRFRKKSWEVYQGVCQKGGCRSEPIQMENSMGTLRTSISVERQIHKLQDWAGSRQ

Adenosine receptor A2a = Adenosine receptor A2a (Homo sapiens, UniProt P29274)
[4] = molecular target: T6, Alpha-1A adrenergic receptor (Homo sapiens, UniProt P35348); type: functional, cell-based
T6 sequence (P35348 whole entry): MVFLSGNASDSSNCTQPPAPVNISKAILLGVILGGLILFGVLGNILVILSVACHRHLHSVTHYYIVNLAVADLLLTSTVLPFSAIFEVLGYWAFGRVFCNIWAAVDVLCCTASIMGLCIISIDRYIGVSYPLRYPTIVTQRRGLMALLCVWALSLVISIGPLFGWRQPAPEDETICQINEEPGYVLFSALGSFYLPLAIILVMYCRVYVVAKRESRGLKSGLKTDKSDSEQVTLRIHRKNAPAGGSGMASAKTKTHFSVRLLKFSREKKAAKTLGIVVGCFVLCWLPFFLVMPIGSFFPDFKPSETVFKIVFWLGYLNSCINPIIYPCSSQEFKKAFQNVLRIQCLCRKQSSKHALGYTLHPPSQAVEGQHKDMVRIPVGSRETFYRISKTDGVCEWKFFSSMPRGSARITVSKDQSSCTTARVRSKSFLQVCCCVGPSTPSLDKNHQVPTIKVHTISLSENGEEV
Also: assay procedure not described here.

Chain of Cannabinoid receptor 1 (P21554 whole entry): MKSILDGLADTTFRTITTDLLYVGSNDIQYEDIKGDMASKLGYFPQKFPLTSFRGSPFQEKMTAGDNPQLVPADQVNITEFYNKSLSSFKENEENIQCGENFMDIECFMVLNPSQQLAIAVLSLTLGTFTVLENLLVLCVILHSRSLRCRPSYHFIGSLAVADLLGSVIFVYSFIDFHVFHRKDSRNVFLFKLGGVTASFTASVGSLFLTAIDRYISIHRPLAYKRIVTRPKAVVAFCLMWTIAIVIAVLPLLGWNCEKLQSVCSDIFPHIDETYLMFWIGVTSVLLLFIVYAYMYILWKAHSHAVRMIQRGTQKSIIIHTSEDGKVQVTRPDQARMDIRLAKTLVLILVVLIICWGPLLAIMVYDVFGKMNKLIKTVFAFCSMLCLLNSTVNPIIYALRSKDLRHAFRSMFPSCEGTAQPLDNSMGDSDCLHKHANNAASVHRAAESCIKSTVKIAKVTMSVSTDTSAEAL
Chain of Adenosine receptor A2a (P29274 whole entry): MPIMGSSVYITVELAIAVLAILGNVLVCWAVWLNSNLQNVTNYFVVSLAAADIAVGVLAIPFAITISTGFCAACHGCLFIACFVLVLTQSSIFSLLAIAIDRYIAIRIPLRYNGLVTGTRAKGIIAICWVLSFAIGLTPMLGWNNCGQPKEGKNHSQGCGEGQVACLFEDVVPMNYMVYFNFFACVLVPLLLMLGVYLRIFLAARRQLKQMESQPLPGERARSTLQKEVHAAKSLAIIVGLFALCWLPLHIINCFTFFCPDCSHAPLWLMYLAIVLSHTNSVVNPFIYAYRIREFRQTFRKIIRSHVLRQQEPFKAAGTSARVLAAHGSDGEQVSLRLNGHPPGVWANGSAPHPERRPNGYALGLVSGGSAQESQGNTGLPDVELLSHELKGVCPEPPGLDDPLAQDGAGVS

| Compound | AC50 (Thromboxane A2 receptor) [µM] | AC50 [1] [µM] | AC50 (Cannabinoid receptor 1) [µM] | AC50 [2] [µM] | AC50 [3] [µM] | AC50 (B2 bradykinin receptor) [µM] | AC50 (Adenosine receptor A2a) [µM] | AC50 [4] [µM] |
| --- | --- | --- | --- | --- | --- | --- | --- | --- |
| Cc1nnc2n1-c1ccc(Cl)cc1C(c1ccccc1Cl)=NC2 [TRIAZOLAM] | > 30 | > 30 | > 30 | > 10 | > 30 | > 30 | > 30 | 14 |
| COc1ccc(CCNCC(O)COc2cccc(C)c2)cc1OC (stereo unspecified) [BEVANTOLOL] | > 10 | > 10 | > 30 | > 10 | > 10 | > 10 | > 10 | > 30 |
| CC1(C)CCC(CN2CCN(c3ccc(C(=O)NS(=O)(=O)c4ccc(NCC5CCOCC5)c([N+](=O)[O-])c4)c(Oc4cnc5[nH]ccc5c4)c3)CC2)=C(c2ccc(Cl)cc2)C1 [VENETOCLAX] | – | > 30 | – | > 30 | – | – | – | – |
| O=C1C(O)=C([C@H]2CC[C@H](c3ccc(Cl)cc3)CC2)C(=O)c2ccccc21 [ATOVAQUONE] | > 30 | > 30 | – | > 30 | > 30 | > 30 | > 30 | > 30 |
| COc1ccc2c3c1O[C@H]1[C@@H](O)CC[C@H]4[C@@H](C2)N(C)CC[C@@]341 [DIHYDROCODEINE] | – | – | > 30 | > 30 | – | – | – | > 30 |
| Fc1ccc(C(c2ccccc2)(c2ccccc2F)n2ccnc2)cc1 (stereo unspecified) [FLUTRIMAZOLE] | 30 | > 30 | > 30 | > 30 | > 30 | > 30 | > 30 | > 30 |
| CC/C(=C(\c1ccccc1)c1ccc(OCCN(C)C)cc1)c1ccccc1 [TAMOXIFEN] | – | – | – | > 10 | – | – | – | > 30 |
| C[C@H]1COc2c(C3(N)CC3)c(F)cc3c(=O)c(C(=O)O)cn1c23 [PAZUFLOXACIN] | > 10 | > 30 | – | > 10 | > 10 | > 10 | > 10 | – |
| CC(CC1c2ccccc2CCc2ccccc21)CN(C)C (stereo unspecified) [BUTRIPTYLINE] | – | – | > 30 | > 30 | – | – | – | > 30 |
| NC(=O)OCC(COC(N)=O)c1ccccc1 [FELBAMATE] | > 10 | > 10 | – | > 10 | > 10 | > 10 | > 10 | – |
| NC(=O)CN1CC(O)CC1=O (stereo unspecified) [OXIRACETAM] | > 30 | > 30 | > 30 | > 30 | > 30 | > 30 | > 30 | > 30 |
| Brc1c(NC2=NCCN2)ccc2nccnc12 [BRIMONIDINE] | – | > 30 | > 30 | > 30 | > 30 | > 30 | > 30 | 0.645 |
| Nc1nc(Cl)nc2c1ncn2[C@H]1C[C@H](O)[C@@H](CO)O1 [CLADRIBINE] | – | > 30 | > 30 | > 30 | > 30 | > 30 | > 30 | > 30 |
| Cc1cc(C(C)(C)C)c(O)c(C)c1CC1=NCCN1 [OXYMETAZOLINE] | – | > 30 | > 30 | > 30 | – | – | – | – |
| Clc1ccccc1C(c1ccccc1)(c1ccccc1)n1ccnc1 [CLOTRIMAZOLE] | – | – | > 30 | > 10 | – | – | – | > 30 |
| C[C@@H]1O[C@@H](O[C@@H]2C=C3CC[C@@H]4[C@H](CC[C@]5(C)[C@@H](c6ccc(=O)oc6)CC[C@]45O)[C@@]3(C)CC2)[C@H](O)[C@H](O)[C@H]1O [PROSCILLARIDIN] | > 30 | 13 | > 30 | > 30 | > 30 | > 30 | > 30 | > 30 |
| COc1cccc(C2(O)CCCCC2CN(C)C)c1 (stereo unspecified) [TRAMADOL] | > 30 | > 30 | > 30 | > 10 | > 30 | > 30 | > 30 | > 30 |
| Cc1c(OCC(F)(F)F)ccnc1C[S+]([O-])c1nc2ccccc2[nH]1 (stereo unspecified) [LANSOPRAZOLE] | 3.46 | > 30 | > 30 | > 10 | > 30 | > 30 | > 30 | > 30 |
| C#C[C@]1(O)CC[C@H]2[C@@H]3[C@H](C)CC4=C(CCC(=O)C4)[C@H]3CC[C@@]21C [TIBOLONE] | > 30 | 4.5 | > 30 | > 30 | > 30 | > 30 | > 30 | > 30 |
| CC(C)(C)NCC(O)COc1cccc2c1CCC(=O)N2 (stereo unspecified) [CARTEOLOL] | > 10 | > 10 | > 30 | > 10 | > 10 | > 10 | > 10 | > 30 |

Source: ChEMBL document CHEMBL5291721, “A preclinical secondary pharmacology resource illuminates target-adverse drug reaction associations of marketed drugs” (Nat Commun, 2023)
